In data set [1] the test system is RPMI 8226 cells (malignant myeloma). Briefly: RPMI 8226 cell culture assay (3H-thymidine incorporation). Type of data set: cell-based, human. The conditions noted are these: FIG. 1; for growth of RPMI 8226 malignant cells: 96 hours; for growth of RPMI 8226 cells at low concentration: low concentration range 10^−12 to approximately 10^−9. How it is done:
(§1) All trans-retinoic acid (t-RA) (Sigma Chemicals Co., St. Louis, Mo.) was stored at −70° C. Prior to each experiment the compound was dissolved in 100% ethanol at 1 mM and diluted in culture medium immediately before use. All experiments were performed in subdued light. Controls were assayed using the same concentration of ethanol as present in the experimental plates and this concentration of diluent had no effect in either assay.
The cell lines, RPMI 8226, ME-180 and AML-193 were obtained from the American Type Culture Collection (ATCC, Rockville, Md.). RPMI 8226 is a human hematopoietic cell line obtained from the peripheral blood of a patient with multiple myeloma. The cells resemble the lymphoblastoid cells of other human lymphocyte cell lines and secrete […] light chains of immunoglobulin. RPMI-8226 cells are grown in RPMI medium (Gibco) supplemented with 10% fetal bovine serum, glutamine and antibiotics. The cells were maintained as suspension cultures grown at 37° C. in a humidified atmosphere of 5% CO2 in air. The cells were diluted to a concentration of 1×10^5/ml twice a week.
The method used for determination of the incorporation of radiolabeled thymidine was adapted from the procedure described by Shrivastav et al. RPMI-8226 cells were plated in a 96 well round bottom microtiter plate (Costar) at a density of 1,000 cells/well. To appropriate wells, retinoid test compounds were added at the final concentrations indicated for a final volume of 150 μl/well. The plates were incubated for 96 hours at 37° C. in a humidified atmosphere of 5% CO2 in air. Subsequently, 1 μCi of [5′-^3H]-thymidine (Amersham, U.K. 43 Ci/mmol specific activity) in 25 μl culture medium was added to each well and the cells were incubated for an additional 6 hours. The cultures were further processed as described below.
(§2) The cell lines were then processed as follows: the cellular DNA was precipitated with 10% trichloroacetic acid onto glass fiber filter mats using a SKATRON multi-well cell harvester (Skatron Instruments, Sterling Va.). Radioactivity incorporated into DNA, as a direct measurement of cell growth, was measured by liquid scintillation counting. The numbers represent the mean disintegrations per minute of incorporated thymidine from triplicate wells±SEM.

Data set [2] deals with AML-193 cells (acute monocytic leukemia). Kind of data set: AML 193 cell culture assay (3H-thymidine incorporation). In kind it is cell-based, human. The conditions noted are these: FIG. 3; low concentrations. How it is done:
as §1
AML-193 was established from the blast cells classified as M5 Acute Monocyte Leukemia. The growth factor, […] (GM-CSF) was required to establish this cell line and growth factors are necessary for its continuous proliferation in chemically defined medium. AML-193 cells were grown and maintained in Iscove's modified Dulbecco's medium supplemented with 10% fetal bovine serum, glutamine and antibiotics with 5 μg/ml insulin (Sigma Chemical Co.) and 2 ng/ml rh GM-CSF (R and D Systems). The cells were diluted to a concentration of 3×10^5/ml twice a week.
AML-193 cells were plated in a 96 well round bottom microtiter plate (Costar) at a density of 1,000 cells/well. To appropriate wells, retinoid test compounds were added at the final concentrations indicated for a final volume of 150 μl/well. The plates were incubated for 96 hours at 37° C. in a humidified atmosphere of 5% CO2 in air. Subsequently, 1 μCi of [5′-^3H]-thymidine (Amersham, U.K., 43 Ci/mmol specific activity) in 25 μl culture medium was added to each well and the cells were incubated for an additional 6 hours.
as §2

Data set [3] concerns limb bud mesenchymal cells. Briefly: Chondrogenesis suppression bioassay (teratogenic potency). The conditions noted are these: read-out: IC50 (50% inhibition of chondrogenesis); mouse limb bud spot cultures, 96 hours after plating; greater IC50 signifies lesser teratogenecity. In kind it is cell-based. The procedure: High-density “spot” cultures of limb bud mesenchymal cells are used to compare the ability of various concentrations of test drugs to suppress chondrogenic differentiation as a bioassay. Forelimb buds of mouse embryos on day 12 of gestation (54±2 somites) are dissociated in a trypsin-EDTA solution, and the resultant single-cell suspension is plated as 20-μl spots (200,000 cells/spot) on plastic culture dishes. Retinoid concentrations ranging from 0.3 ng/ml to 3 μg/ml (1 nM−10 μM) are added to the culture medium (Eagle's MEM±10% fetal bovine serum, GIBCO) 24 hours after initial plating. Control cultures receive only the vehicle (ethanol, concentration≦1% by vol); Retinoic acid is used as a positive control in another set of cultures.
The cultures are terminated 96 hours after plating, at which time the medium is removed and the cells are fixed for 1 hour in 10% formalin containing 0.5% cetylpyridinium chloride. The cultures are rinsed in acetic acid and stained for 1 hour in 0.5% Alcian blue solution at pH 1.0, differentiated in 3% acetic acid, and then dehydrated in ethanol and scored for chondrogenesis under the microscope. An absence or reduction in the number of cartilage nodules in stained cultures as compared with control cultures is taken as a measure of suppression of chondrogenesis. The number of cartilage nodules stained in the whole spot, mean number of nodules, and standard deviations are calculated for four replicate cultures per treatment. […] The IC50 values are expressed in nanogram per mililiter (ng/ml) units. An IC50 value of greater concentration in this assay signifies lesser teratogenecity.

The target in a further data set is T1, RXRβ (Homo sapiens, UniProt P28702).
T1 construct: made in house; host or cells: Baculovirus expression (insect cell extract)
T1 sequence (P28702 1-533): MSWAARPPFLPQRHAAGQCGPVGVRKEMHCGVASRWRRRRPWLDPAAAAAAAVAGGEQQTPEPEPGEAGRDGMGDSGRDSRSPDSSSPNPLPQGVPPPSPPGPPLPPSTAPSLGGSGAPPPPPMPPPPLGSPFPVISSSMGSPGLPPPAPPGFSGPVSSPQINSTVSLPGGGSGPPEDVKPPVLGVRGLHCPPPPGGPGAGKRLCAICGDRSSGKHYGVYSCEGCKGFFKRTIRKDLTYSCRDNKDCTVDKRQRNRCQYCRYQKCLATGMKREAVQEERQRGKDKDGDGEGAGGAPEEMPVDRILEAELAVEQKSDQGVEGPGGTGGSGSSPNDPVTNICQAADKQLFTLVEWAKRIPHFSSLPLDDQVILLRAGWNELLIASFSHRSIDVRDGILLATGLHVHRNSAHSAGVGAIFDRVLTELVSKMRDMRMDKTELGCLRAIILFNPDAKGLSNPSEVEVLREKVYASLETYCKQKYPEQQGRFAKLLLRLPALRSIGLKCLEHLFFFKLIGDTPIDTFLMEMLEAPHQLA
Briefly: Ligand binding assay, RXRβ. How it is done: (§3) All binding assays were performed in a similar fashion. All six receptor types were derived from the expressed receptor type (RARα, β, Γ and RXRα, β, Γ) expressed in Baculovirus. Stock solutions of all compounds were prepared as 10 mM ethanol solutions and serial dilutions carried out into 1:1 DMSO; ethanol. Assay buffers consisted of the following for all six receptor assays: 8% glycerol, 120 mM KCl 8 mM Tris, 5 mM CHAPS 4 mM DTT and 0.24 mM PMSF, pH-7.4@ room temperature.
(§4) All receptor binding assays were performed in the same manner. The final assay volume was 250 μl and contained from 10-40 μg of extract protein depending on receptor being assayed along with 5 nM of [^3H] all-trans retinoic acid or 10 nM [^3H] 9-cis retinoic acid and varying concentrations of competing ligand at concentrations that ranged from 0-10^−5 M. The assays were formatted for a 96 well minitube system. Incubations were carried out at 4° C. until equilibrium was achieved. Non-specific binding was defined as that binding remaining in the presence of 1000 nM of the appropriate unlabeled retinoic acid isomer. At the end of the incubation period, 50 μl of 6.25% hydroxyapitite was added in the appropriate wash buffer. The wash buffer consisted of 100 mM KCl, 10 mM Tris and either 5 mM CHAPS (RXRα, β, Γ) or 0.5% Triton X-100 (RARα, β, Γ). The mixture was vortexed and incubated for 10 minutes at 4° C., centrifuged and the supernatant removed. The hydroxyapitite was washed three more times with the appropriate wash buffer. The receptor-ligand complex was adsorbed by the hydroxyapitite. The amount of receptor-ligand complex was determined by liquid scintillation counting of hydroxyapitite pellet.
(§5) After correcting for non-specific binding, IC50 values were determined. […] The IC50 value was determined graphically from a loglogit plot of the data. The […] were determined by application of the Cheng-Prussof equation to the IC50 values, the labeled ligand concentration and the Kd of the labeled ligand.
(§6) The results of ligand binding assay are expressed in Kd numbers. (See Cheng et al. Biochemical Pharmacology Vol. 22 pp 3099-3108, expressly incorporated herein by reference.)

A further data set addresses T2, RXRΓ (Homo sapiens, UniProt P48443).
T2 construct: made in house; host or cells: Baculovirus expression (insect cell extract)
T2 sequence (P48443 1-463): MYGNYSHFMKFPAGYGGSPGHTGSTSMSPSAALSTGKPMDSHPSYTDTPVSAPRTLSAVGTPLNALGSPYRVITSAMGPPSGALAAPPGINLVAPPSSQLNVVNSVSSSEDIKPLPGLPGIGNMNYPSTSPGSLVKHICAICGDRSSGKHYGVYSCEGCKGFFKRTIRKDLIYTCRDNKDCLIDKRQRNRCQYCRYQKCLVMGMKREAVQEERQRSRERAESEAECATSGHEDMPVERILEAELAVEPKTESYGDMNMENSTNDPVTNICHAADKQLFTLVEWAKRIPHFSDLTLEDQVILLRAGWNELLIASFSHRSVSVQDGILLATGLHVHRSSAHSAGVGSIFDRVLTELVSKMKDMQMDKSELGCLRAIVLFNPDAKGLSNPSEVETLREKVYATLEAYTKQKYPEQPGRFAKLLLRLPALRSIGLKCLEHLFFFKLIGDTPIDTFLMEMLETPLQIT
Briefly: Ligand binding assay, RXRΓ. How it is done: as §3, §4, §5, §6

A short description of data set [4]: Weight loss in rats treated for 3 days. Type of data set: in vivo, rat. The following applies: rats, similar tests. The procedure:
Weight loss or gain that experimental animals experience upon administration of retinoid compounds is another test of the drug's toxicity, with significant weight loss at relatively low doses indicating a significant toxic side effect of the retinoid. In one experiment, groups of 5 rats were treated with varying doses (administered in corn oil) of a test retinoid for 3 days. The rats were euthanized 24 hours after the last dose.

The test system of data set [5] is hairless mice [Crl:SKH1-hrBR]. Briefly: Eight day topical skin irritation assay in hairless mice. The following applies: for Abrasion Score / Body Weight % gain or (loss) / Composite Score / Flaking Score / Mortality (out of 4): 5 days.
Experimental: More particularly, skin irritation was measured on a semi-quantitative scale by the daily subjective evaluation of skin flaking and abrasions. A single number, the topical irritation score, summarizes the skin irritation induced in an animal during the course of an experiment. The topical irritation score is calculated as follows. The topical irritation score is the algebraic sum of a composite flaking score and a composite abrasion score. The composite scores range from 0-9 and 0-8 for flaking and abrasions, respectively, and take into account the maximum severity, the time of onset, and the average severity of the flaking and abrasions observed.
The severity of flaking is scored on a 5-point scale and the severity of abrasions is scored on a 4-point scale, with higher scores reflecting greater severity. The maximum severity component of the composite scores would be the highest daily severity score assigned to a given animal during the course of observation.
For the time of onset component of the composite score, a score ranging from 0 to 4 is assigned as follows:
The average severity component of the composite score is the sum of the daily flaking or abrasion scores divided by the number of observation days.
To calculate the composite flaking and abrasion scores, the average severity and time of onset scores are summed and divided by 2. The result is added to the maximal severity score. The composite flaking and abrasion scores are then summed to give the overall topical irritation score. Each animal receives a topical irritation score, and the values are expressed as the mean±SD of the individual scores of a group of animals. Values are rounded to the nearest integer.
Thus, female hairless mice [Crl:SKH1-hrBR] […] Treatments are applied to the dorsal skin in a total volume of 4 ml/kg (−0.1 ml).

In brackets after ≈: the same amount, converted by molar mass.

In the case of `CC1(C)CC(C)(C)c2cc(C(=O)Nc3ccc(C(=O)O)c(F)c3)cc(C(F)(F)F)c2O1` [Compound 12], in data set [1], the “growth of RPMI 8226 malignant cells” value is listed as “inhibited the growth” and the “growth of RPMI 8226 cells at low concentration” value is “do not stimulate but rather already in this low concentrations inhibit the growth”. The “AML-193 cell proliferation at low concentrations” value in data set [2] is listed as “reduce cell proliferation at low concentrations”.

`CC1(C)CC(C)(C)c2cc(C(=O)Nc3ccc(C(=O)O)c(F)c3)cc(Br)c2O1` [Compound 10, 2-Fluoro-4-[(2′,2′,4′,4′-tetramethyl-8′-bromochroman-6′-yl)carbamoyl]benzoic Acid]: the IC50 in data set [3] came out at 250 ng/mL (≈ 555 nM).

With `CC(C)(C)c1cc(C(=O)Nc2ccc(C(=O)O)cc2)cc(C(C)(C)C)n1` [Compound 44], the Kd at RXRβ and on RXRΓ was over 1000 nM throughout.

Turning to `C/C(=C\c1ccc(C(=O)O)cc1)c1ccc2c(c1)C(C)(C)CCC2(C)C` [TTNPB], in data set [4], the “weight loss in similar tests” value was “very significant weight loss”. The IC50 in data set [3] was found to be 0.01 ng/mL (≈ 0.0287 nM). Moreover, in data set [5] (dose 0.9 nanomol/25 g topical), the “Abrasion Score” value stood at 3, the “Body Weight % gain or (loss)” value is 5 ± 2%, the “Composite Score” value turned out to be 8 ± 2 and the “Flaking Score” value worked out at 5. Besides, in data set [5] (dose 0.9 nanomol/25 g topical), the “Mortality (out of 4)” value is reported as 0 out of 4. Moreover, in data set [5] (dose 2.7 nanomol/25 g topical), the “Abrasion Score” value came to 3, the “Body Weight % gain or (loss)” value is given as “(4 ± 3) %”, the “Composite Score” value came to 9 ± 2 and the “Flaking Score” value was 6. The “Mortality (out of 4)” value in data set [5] (dose 2.7 nanomol/25 g topical) was 0 out of 4. In data set [5] (dose 9 nanomol/25 g topical), the “Abrasion Score” value stood at 5, the “Body Weight % gain or (loss)” value is listed as “(11 ± 3) %”, the “Composite Score” value came out at 11 ± 2 and the “Flaking Score” value was 7. Besides, in data set [5] (dose 9 nanomol/25 g topical), the “Mortality (out of 4)” value is listed as 0 out of 4. In data set [5] (topical, hairless mice, RARα selective compound up to 1000 nmol/25 g), the “skin irritation (summary in words)” value was “much more serious skin irritation”.

`CC1(C)CCC(C)(C)c2c(Br)cc(C(=O)Nc3ccc(C(=O)O)c(F)c3)cc21` [Compound 4, 2-Fluoro-4-[(4′-bromo-5′,6′,7′,8′-tetrahydro-5′,5′,8′,8′-tetramethylnaphthalen-2′-yl)carbamoyl]benzoic Acid]: in data set [1], the “growth of RPMI 8226 malignant cells” value is on record as “inhibited the growth” and the “growth of RPMI 8226 cells at low concentration” value is given as “do not stimulate but rather already in this low concentrations inhibit the growth”. Moreover, in data set [2], the “AML-193 cell proliferation at low concentrations” value is given as “reduce cell proliferation at low concentrations”.

Take `CC(C)(C)c1cc(C(=O)Nc2ccc(C(=O)O)c(F)c2)c(O)c(C(C)(C)C)c1` [Compound 48]: the Kd at RXRβ and at RXRΓ was over 1000 nM in each case.

These data come from patent publication US6610744B2, “Methods of treatment with compounds having RARα receptor specific or selective activity” (Allergan, Inc., priority 1995, dated 2003).
